# Results published in patent US11684646B2, “Methods and related compositions for reducing oxidative stress” (Gateway Health Alliances, Inc., priority 2019, dated 2023).
# Assays:
# [1] = system: lipid peroxidation induced in brain homogenates; experiment: Inhibition of FeSO4-induced lipid peroxidation in brain homogenates; assay type: biochemical, Wistar rats
# Source text: I.2.3 Inhibitory Activity of Lipid Peroxide in Nitro (Prasanth et al., 2000)
# PRINCIPLE: Lipid peroxidation refers to the oxidative degradation of lipids which provoke a continuous increase in the permeability of cell membranes, inducing an irreversible alteration of the functional properties of the cell which could eventually lead to cytolysis. It is a radical chain reaction in which a free radical cleaves a hydrogen atom from membrane lipids in order to form a conjugated diene radical, which is oxidized to a peroxyl that in turn generates other radical reactions leading to the formation of terminal products such as MDA. Iron can stimulate lipid peroxidation either by Fenton reaction or by acceleration of peroxidation through the decomposition of lipid hydroperoxides into peroxyl or alkoxyl radicals; themselves capable of cleaving a hydrogen and perpetrating lipid peroxidation. The MDA from this reaction reacts with TBA to give pink colored chromophores which absorb at 532 nm. […]
# The lipid peroxidation test was conducted as follows: 300 μL of plant extract at different concentrations and distilled water (control) were added to 500 μL of each homogenate. […] The absorbance was read at 532 nm. […] The IC50 were determined by extrapolating after drawing curves of lipid peroxidation percentage inhibition against the concentrations of plant extracts.
# [2] = Ability to trap the hydroxyl radical (deoxyribose oxidation, Fenton reaction)
# Source text: I.2.3 Ability to Trap the Hydroxyl (^·OH) Radical (Halliwell et al., 1987)
# PRINCIPLE: The […] capacity of plant extracts to trap the hydroxyl radical is based on the Fenton reaction, by measuring the production of ·OH radical and its effect on the oxidation and degradation bio-molecules such as deoxyribose in DNA. The system in this technique involves an auto-oxidation of the Fe^2+-EDTA complex in an aqueous medium to form the superoxide (O2^−·) anion which is rapidly dismutated into H2O2 at a pH of 7.4. The latter then reacts with Fe^2+ form ^·OH radicals in the presence of ascorbic acid which acts as catalyst (Fenton reaction). […]
# PROTOCOL: The reaction mixture contained the following reagents: 0.4 mL of phosphate buffer (50 mmol/L, pH=7.4), 0.1 mL of different concentrations of the extract, 0.1 mL of EDTA (1.04 mmol/L), 0.1 mL of FeCl3 (1 mmol/L) and 0.1 mL 2-deoxyribose (60 mmol/L). the reaction was initiated by adding 0.1 mL of ascorbic acid (2 mmol/L) and 0.1 mL of H2O2 (10 mmol/L). after incubating for 1 hour at 37° C., 1 mL of TBA (10 g/L) were added into the reaction medium followed by 1 mL of HCl (25% v/v). […] The absorbance was then read at 532 nm. The capacity of extracts to trap the hydroxyl radical was expressed as percentage inhibition of the oxidation of 2-deoxyribose based on the following formula: […]
substance,measurement,setting,value
Vitamin E,IC50 for lipid peroxidation induced in the brain,[1],0.574 mg/mL
same,percentage inhibition of lipid peroxidation in brain homogenates,[1]; 1000 m/mL,60.427%
same,IC50 ·OH scavenging activity,[2],25.3 mg/mL
